In ChEMBL document CHEMBL1151840, “Synthetic oligoribonucleotides containing arabinonucleotides act as agonists of TLR7 and 8” (Bioorg Med Chem Lett, 2009):
Active and inactive are the calls of the source. The calls are words filed in the database; no cut-off is given here.

Columns and labels:
[1] = Stability in human serum assessed as full-length compound remaining after 10 mins by anion-exchange HPLC; assay type: ADME, cell-free; conditions: read-out: Stability
[2] = biological target: T1, Toll-like receptor 8 (Homo sapiens) (UniProt Q9NR97); experiment: Agonist activity at human TLR8 expressed in HEK293XL cells assessed as NF-kappaB activation after 18 hrs; assay type: functional, cell-based
T1 sequence (whole entry): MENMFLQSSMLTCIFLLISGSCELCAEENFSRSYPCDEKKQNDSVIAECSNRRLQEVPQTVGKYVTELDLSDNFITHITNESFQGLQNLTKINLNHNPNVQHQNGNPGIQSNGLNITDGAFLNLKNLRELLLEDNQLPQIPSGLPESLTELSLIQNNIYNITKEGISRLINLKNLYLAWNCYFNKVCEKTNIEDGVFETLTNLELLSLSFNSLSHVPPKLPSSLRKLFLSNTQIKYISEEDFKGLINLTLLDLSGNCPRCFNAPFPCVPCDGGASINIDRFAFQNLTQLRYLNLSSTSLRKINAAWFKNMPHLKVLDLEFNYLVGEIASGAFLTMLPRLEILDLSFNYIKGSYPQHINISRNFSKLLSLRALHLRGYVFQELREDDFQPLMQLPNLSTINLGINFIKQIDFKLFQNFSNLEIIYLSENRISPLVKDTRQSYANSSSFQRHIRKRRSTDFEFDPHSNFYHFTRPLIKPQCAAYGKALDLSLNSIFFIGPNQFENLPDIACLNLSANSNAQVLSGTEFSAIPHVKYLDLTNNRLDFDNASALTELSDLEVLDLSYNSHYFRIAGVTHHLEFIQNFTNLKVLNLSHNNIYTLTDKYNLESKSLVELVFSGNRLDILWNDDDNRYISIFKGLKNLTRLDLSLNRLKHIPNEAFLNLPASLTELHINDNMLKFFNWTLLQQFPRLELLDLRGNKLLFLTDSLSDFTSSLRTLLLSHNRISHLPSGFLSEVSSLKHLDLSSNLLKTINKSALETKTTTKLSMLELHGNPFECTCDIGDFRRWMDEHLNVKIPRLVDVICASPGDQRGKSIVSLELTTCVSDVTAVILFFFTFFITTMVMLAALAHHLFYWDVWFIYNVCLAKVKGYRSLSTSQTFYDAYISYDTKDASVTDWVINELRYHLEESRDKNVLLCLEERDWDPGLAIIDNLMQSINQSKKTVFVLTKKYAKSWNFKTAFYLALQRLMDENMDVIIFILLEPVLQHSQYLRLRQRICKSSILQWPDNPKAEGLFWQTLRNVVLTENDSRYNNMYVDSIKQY

[3] = biological target: T2, Toll-like receptor 7 (Homo sapiens) (UniProt Q9NYK1); experiment: Agonist activity at human TLR7 expressed in HEK293XL cells assessed as NF-kappaB activation at 300 ug/ml after 18 hrs; assay type: functional, cell-based
T2 sequence (whole entry): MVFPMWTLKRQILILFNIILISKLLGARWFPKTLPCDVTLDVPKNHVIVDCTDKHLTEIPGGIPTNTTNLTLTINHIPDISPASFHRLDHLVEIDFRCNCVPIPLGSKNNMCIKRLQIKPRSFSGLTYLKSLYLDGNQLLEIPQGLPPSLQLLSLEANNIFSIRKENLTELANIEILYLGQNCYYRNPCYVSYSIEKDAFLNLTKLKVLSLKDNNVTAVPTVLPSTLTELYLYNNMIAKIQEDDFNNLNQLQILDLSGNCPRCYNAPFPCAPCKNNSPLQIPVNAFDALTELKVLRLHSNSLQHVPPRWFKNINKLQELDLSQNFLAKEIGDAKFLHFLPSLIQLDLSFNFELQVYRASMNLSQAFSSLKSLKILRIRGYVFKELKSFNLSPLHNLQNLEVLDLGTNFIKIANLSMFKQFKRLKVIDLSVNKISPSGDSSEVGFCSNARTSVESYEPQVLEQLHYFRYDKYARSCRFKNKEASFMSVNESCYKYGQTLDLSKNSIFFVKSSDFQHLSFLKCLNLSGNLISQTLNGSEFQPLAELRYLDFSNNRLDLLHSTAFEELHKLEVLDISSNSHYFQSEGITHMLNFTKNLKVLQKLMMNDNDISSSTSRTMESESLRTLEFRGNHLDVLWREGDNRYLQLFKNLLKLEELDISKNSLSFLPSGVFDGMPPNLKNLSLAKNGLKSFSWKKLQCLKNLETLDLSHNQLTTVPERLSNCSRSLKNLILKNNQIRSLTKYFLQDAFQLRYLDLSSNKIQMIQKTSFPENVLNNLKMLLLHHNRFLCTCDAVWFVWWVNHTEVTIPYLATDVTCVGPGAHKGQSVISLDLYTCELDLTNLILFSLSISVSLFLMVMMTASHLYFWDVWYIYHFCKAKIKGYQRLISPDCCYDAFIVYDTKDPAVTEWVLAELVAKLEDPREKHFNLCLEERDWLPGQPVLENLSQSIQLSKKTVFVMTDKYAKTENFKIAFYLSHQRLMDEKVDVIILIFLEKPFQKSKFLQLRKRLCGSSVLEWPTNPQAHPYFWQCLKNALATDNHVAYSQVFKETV

[4] = test system: PBMC; experiment: Stimulation of immune response in human PBMC assessed as induction of IL1-beta production at 150 ug/ml after 24 hrs; assay type: functional, cell-based
[5] = test system: PBMC; experiment: Stimulation of immune response in human PBMC assessed as induction of IL2R level at 150 ug/ml after 24 hrs; assay type: functional, cell-based
[6] = test system: PBMC; experiment: Stimulation of immune response in human PBMC assessed as induction of IL8 production at 150 ug/ml after 24 hrs; assay type: functional, cell-based
[7] = test system: PBMC; experiment: Stimulation of immune response in human PBMC assessed as induction of IL10 production at 150 ug/ml after 24 hrs; assay type: functional, cell-based
[8] = test system: PBMC; experiment: Stimulation of immune response in human PBMC assessed as induction of IL12 production at 150 ug/ml after 24 hrs; assay type: functional, cell-based
[9] = test system: PBMC; experiment: Stimulation of immune response in human PBMC assessed as induction of IFNalpha production at 150 ug/ml after 24 hrs; assay type: functional, cell-based
[10] = test system: PBMC; experiment: Stimulation of immune response in human PBMC assessed as induction of IFN-gamma production at 150 ug/ml after 24 hrs; assay type: functional, cell-based
[11] = test system: PBMC; experiment: Stimulation of immune response in human PBMC assessed as induction of MCP1 production at 150 ug/ml after 24 hrs; assay type: functional, cell-based
[12] = test system: PBMC; experiment: Stimulation of immune response in human PBMC assessed as induction of RANTES production at 150 ug/ml after 24 hrs; assay type: functional, cell-based
[13] = test system: PBMC; experiment: Stimulation of immune response in human PBMC assessed as induction of MIP1alpha production at 150 ug/ml after 24 hrs; assay type: functional, cell-based
[14] = test system: PBMC; experiment: Stimulation of immune response in human PBMC assessed as induction of MIP1beta production at 150 ug/ml after 24 hrs; assay type: functional, cell-based
[15] = test system: PBMC; experiment: Stimulation of immune response in human PBMC assessed as induction of TNFalpha production at 150 ug/ml after 24 hrs; assay type: functional, cell-based
[16] = species on record: Homo sapiens; experiment: Stimulation of immune response in human pDC assessed as induction of IFN-gamma production at 150 ug/ml after 24 hrs; assay type: functional
[17] = species on record: Homo sapiens; experiment: Stimulation of immune response in human pDC assessed as induction of IFNalpha production at 150 ug/ml after 24 hrs; assay type: functional
[18] = species on record: Homo sapiens; experiment: Stimulation of immune response in human pDC assessed as induction of IL12 production at 150 ug/ml after 24 hrs; assay type: functional
[19] = species on record: Homo sapiens; experiment: Stimulation of immune response in human pDC assessed as induction of TNFalpha production at 150 ug/ml after 24 hrs; assay type: functional
[20] = species on record: Homo sapiens; experiment: Stimulation of immune response in human pDC assessed as induction of MIP1alpha production at 150 ug/ml after 24 hrs; assay type: functional
[21] = species on record: Homo sapiens; experiment: Stimulation of immune response in human pDC assessed as induction of MIP1beta production at 150 ug/ml after 24 hrs; assay type: functional
[22] = test system: Mus musculus; experiment: Stimulation of immune response in C57BL/6 mouse assessed as induction of serum IL12 production at 50 mg/kg, sc after 2 hrs by luminex multiplex assay; assay type: functional, organism-based; design: dose 50 mg/kg

**Q.** With `Nc1ccn([C@@H]2O[C@H](COP(=O)(S)O[C@H]3[C@@H](O)[C@H](n4ccc(=O)[nH]c4=O)O[C@@H]3COP(=O)(S)O[C@H]3[C@@H](O)[C@H](n4ccc(=O)[nH]c4=O)O[C@@H]3COP(=O)(S)O[C@H]3[C@@H](O)[C@H](n4cnc5c(=O)[nH]c(N)nc54)O[C@@H]3COP(=O)(S)O[C@H]3[C@@H](O)[C@H](n4ccc(=O)[nH]c4=O)O[C@@H]3COP(=O)(S)O[C@H]3[C@@H](O)[C@H](n4cnc5c(=O)[nH]c(N)nc54)O[C@@H]3COP(=O)(S)OCC(O)COP(=O)(S)O[C@H]3[C@@H](O)[C@H](n4cnc5c(=O)[nH]c(N)nc54)O[C@@H]3COP(=O)(S)O[C@H]3[C@@H](O)[C@H](n4ccc(=O)[nH]c4=O)O[C@@H]3COP(=O)(S)O[C@H]3[C@@H](O)[C@H](n4cnc5c(=O)[nH]c(N)nc54)O[C@@H]3COP(=O)(S)O[C@H]3[C@@H](O)[C@H](n4ccc(=O)[nH]c4=O)O[C@@H]3COP(=O)(S)O[C@H]3[C@@H](O)[C@H](n4ccc(=O)[nH]c4=O)O[C@@H]3COP(=O)(S)O[C@H]3[C@@H](O)[C@H](n4ccc(N)nc4=O)O[C@@H]3COP(=O)(S)O[C@H]3[C@@H](O)[C@H](n4cnc5c(=O)[nH]c(N)nc54)O[C@@H]3COP(=O)(S)O[C@H]3[C@H](O)[C@H](n4ccc(=O)[nH]c4=O)O[C@@H]3COP(=O)(S)O[C@H]3[C@@H](O)[C@H](n4ccc(N)nc4=O)O[C@@H]3COP(=O)(S)O[C@H]3[C@@H](O)[C@H](n4cnc5c(=O)[nH]c(N)nc54)O[C@@H]3COP(=O)(S)O[C@H]3[C@H](O)[C@H](n4ccc(=O)[nH]c4=O)O[C@@H]3CO)[C@@H](OP(=O)(S)OC[C@H]3O[C@@H](n4cnc5c(=O)[nH]c(N)nc54)[C@H](O)[C@@H]3OP(=O)(S)OC[C@H]3O[C@@H](n4ccc(=O)[nH]c4=O)[C@@H](O)[C@@H]3OP(=O)(S)OC[C@H]3O[C@@H](n4ccc(N)nc4=O)[C@H](O)[C@@H]3OP(=O)(S)OC[C@H]3O[C@@H](n4cnc5c(=O)[nH]c(N)nc54)[C@H](O)[C@@H]3OP(=O)(S)OC[C@H]3O[C@@H](n4ccc(=O)[nH]c4=O)[C@@H](O)[C@@H]3OP(=O)(O)S)[C@H]2O)c(=O)n1` (some centres not stated) as the compound, how does the remaining at 10 min [1] read?
**A.** The remaining at 10 min was 76%.

**Q.** And the Activity [2]?
**A.** Its Activity is “Dose-dependent effect”.

**Q.** What about the Activity [3] of the same compound?
**A.** Its Activity is “inactive”.

**Q.** And the Activity [4]?
**A.** The Activity was “Active”.

**Q.** And the Activity [5]?
**A.** Its Activity is “Active”.

**Q.** What about the Activity [6] of the same compound?
**A.** The Activity was “Active”.

**Q.** What about the Activity [7] of the same compound?
**A.** The Activity was “Active”.

**Q.** What about the Activity [8] of the same compound?
**A.** The Activity was “Active”.

**Q.** And the Activity [9]?
**A.** Its Activity is “Active”.

**Q.** And the Activity [10]?
**A.** The Activity was “Active”.

**Q.** What about the Activity [11] of the same compound?
**A.** Its Activity is “Active”.

**Q.** And the Activity [12]?
**A.** The Activity was “Active”.

**Q.** What about the Activity [13] of the same compound?
**A.** Its Activity is “Active”.

**Q.** What about the Activity [14] of the same compound?
**A.** Its Activity is “Active”.

**Q.** What about the Activity [15] of the same compound?
**A.** The Activity was “Active”.

**Q.** What about the Activity [16] of the same compound?
**A.** Its Activity is “Active”.

**Q.** And the Activity [17]?
**A.** Its Activity is “inactive”.

**Q.** What about the Activity [18] of the same compound?
**A.** The Activity was “Active”.

**Q.** What about the Activity [19] of the same compound?
**A.** The Activity was “Active”.

**Q.** What about the Activity [20] of the same compound?
**A.** Its Activity is “Active”.

**Q.** What about the Activity [21] of the same compound?
**A.** The Activity was “Active”.

**Q.** And the Activity [22]?
**A.** Its Activity is “inactive”.
